Experimental data: the NIST ThermoML archive (doi:10.1021/je500455u)
± gives the expanded uncertainty stated by the source.

Settings: 101.33 kPa, Liquid, Vibrating tube method

| Structure (SMILES) | mass density (298.15 K) [kg/m3] | mass density (278.15 K) [kg/m3] | mass density (283.15 K) [kg/m3] | mass density (288.15 K) [kg/m3] | mass density (293.15 K) [kg/m3] | mass density (303.15 K) [kg/m3] | mass density (308.15 K) [kg/m3] | mass density (313.15 K) [kg/m3] | mass density (318.15 K) [kg/m3] | mass density (323.15 K) [kg/m3] | mass density (328.15 K) [kg/m3] | mass density (333.15 K) [kg/m3] | mass density (338.15 K) [kg/m3] | mass density (343.15 K) [kg/m3] |
| --- | --- | --- | --- | --- | --- | --- | --- | --- | --- | --- | --- | --- | --- | --- |
| OC(C(F)(F)F)C(F)(F)F [1,1,1,3,3,3-hexafluoro-2-propanol] | 1604.84 ± 0.78 |  |  |  |  |  |  |  |  |  |  |  |  |  |
| CO [methanol] | 786.58 ± 0.23 |  |  |  |  |  |  |  |  |  |  |  |  |  |
| FC(F)(F)C1(F)C(F)(F)C(F)(F)C(F)(F)C(F)(F)C1(F)F [perfluoro(methylcyclohexane)] | 1786.6 ± 1 | 1841 ± 1 | 1827.6 ± 1 | 1814 ± 1 | 1800.4 ± 1 | 1772.7 ± 1 | 1758.7 ± 0.9 | 1744.5 ± 0.9 | 1730.3 ± 0.9 | 1715.8 ± 0.9 | 1701.2 ± 0.9 | 1686.4 ± 0.9 | 1671.5 ± 0.9 | 1656.3 ± 0.8 |
| FC(F)(F)C(F)(F)C(F)(F)C(F)(F)C(F)(F)C(F)(F)F [perfluorohexane] | 1684.4 ± 0.9 | 1742.5 ± 0.9 | 1728.3 ± 0.9 | 1713.8 ± 0.9 | 1699.2 ± 0.9 | 1669.4 ± 0.9 | 1654.1 ± 0.8 | 1638.6 ± 0.8 | 1622.9 ± 0.8 | 1606.4 ± 0.8 | 1590.5 ± 0.8 |  |  |  |
